Results taken from patent publication US5089471A, “Peptidyl beta-aminoacyl aminodiol carbamates as anti-hypertensive agents” (G. D. Searle & Co., priority 1987, dated 1992).
Square brackets hold non-standard residues; d marks the D form. Peptide text beside a SMILES is read from it. * marks the point of attachment. Sta = CC(C)C[C@H](N)[C@@H](O)CC(=O)O; Isovaleryl = CC(C)CC(=O)*

How the values were obtained:
human renin = target: T1, human renin (Homo sapiens, UniProt P00797); test: in vitro human renin inhibition test (angiotensin I determined by radioimmunoassay); assay type: biochemical; conditions: for relative activity of epimers as human renin inhibitor (in words): epimer of Example 9 versus epimer of Example 10
T1 construct: purchased National Institute for Biological Standards, London
T1 sequence (P00797 67-406): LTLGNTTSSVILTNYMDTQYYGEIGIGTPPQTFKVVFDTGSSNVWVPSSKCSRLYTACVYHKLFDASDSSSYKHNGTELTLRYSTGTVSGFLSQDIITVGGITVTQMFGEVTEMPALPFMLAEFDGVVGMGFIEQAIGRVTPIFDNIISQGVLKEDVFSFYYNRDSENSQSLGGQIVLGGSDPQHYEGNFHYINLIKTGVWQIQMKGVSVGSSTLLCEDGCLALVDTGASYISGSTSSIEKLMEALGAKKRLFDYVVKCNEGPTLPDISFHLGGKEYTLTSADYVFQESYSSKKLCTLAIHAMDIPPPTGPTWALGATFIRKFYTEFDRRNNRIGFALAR
Procedure: Compounds of Formula I were evaluated as inhibitors of human renin in an in vitro assay, as follows: This human renin inhibition test has been previously described in detail [Papaioannou, et al., Clinical and Experimental Hypertension, A7(9), 1243-1257 (1985)]. Human renin was obtained from the National Institute for Biological Standards, London. In a total volume of 0.25 mL 100 mM Tris-acetate buffer at pH 7.4, 25×10^-6 Goldblatt units of renin, 0.05 mL of plasma from human volunteers taking oral contraceptives, 6.0 mM sodium EDTA, 2.4 mM phenylmethyl sulfonyl fluoride, 1.5 mM 8-hydroxyquinoline, 0.4 mg/mL BSA, and 0.024 mg/mL neomycin sulfate were incubated for two hours at 37° C. in the presence or absence of renin inhibitors. The produced angiotensin I was determined by radioimmunoassay (New England Nuclear kit). Compounds of Formula I to be assayed were solubilized in either ethyl alcohol or DMSO and diluted with 100 mM Tris-acetate buffer at pH 7.4 to the appropriate concentration. The final concentration of organic solvent in the reaction mixture was less than 1%. Control incubations at 37° C. were used to correct for effects of organic solvent on renin activity.

hog renin = conditions: after the injection of hog renin into nephrectomized rats; Gross et al, Science, 175, 656 (1971); cited from earlier work
pepsin = conditions: Umezawa et al, J. Antibiot. 23:259-262 (1970); cited from earlier work
cathepsin D = conditions: Umezawa et al, J. Antibiot. 23:259-262 (1970); cited from earlier work
renin = conditions: Umezawa et al, J. Antibiot. 23:259-262 (1970); cited from earlier work
acid proteases = conditions: cited from earlier work
[1] = in vitro, pH 7.4, 37° C., two hours, human plasma

## CC(C)C[C@H](O)[C@H](O)[C@H](CC1CCCCC1)NC(=O)C(C)CNC(=O)[C@H](Cc1ccccc1)OC(=O)N1CCOCC1 (stereo partly drawn) [Example 8, O-(N-morpholinocarbonyl)-3-L-phenyllactyl-D,L-α-methyl-β-alaninamide of (2S, 3R, 4S)-2-amino-1-cyclohexyl-3,4-dihydroxy-6-methylheptane]
Human renin; in vitro
  inhibiting renin (in words): capable of inhibiting renin in vitro
Human renin; [1]
  IC50: 280 nM

## CC(C)C[C@H](O)[C@H](O)[C@H](CC1CCCCC1)NC(=O)[C@H](C)CNC(=O)[C@H](Cc1ccccc1)OC(=O)N1CCOCC1 [Example 9, O-(N-morpholinocarbonyl)-3-L-phenyllactyl-α-(R)-methyl-β-alaninamide of (2 S, 3R, 4S)-2-amino-1-cyclohexyl-3,4-dihydroxy-6-methylheptane]
Human renin
  relative activity of epimers as human renin inhibitor (in words): much more active as a human renin inhibitor than the other epimer of Example 10
Human renin; [1]
  IC50: 210 nM

## CC(C)C[C@H](O)[C@H](O)[C@H](CC1CCCCC1)NC(=O)[C@@H](C)CNC(=O)[C@H](Cc1ccccc1)OC(=O)N1CCOCC1 [Example 10, O-(N-morpholinocarbonyl)-3-L-phenyllactyl-α-(S)-methyl-β-alaninamide of (2S, 3R, 4S)-2-amino-1-cyclohexyl-3,4-dihydroxy-6-methylheptane]
Human renin; @ 10^-6 M, in vitro, pH 7.4, 37° C., two hours, human plasma
  inhibition at 1 µM: 8%
Human renin
  relative activity of epimers as human renin inhibitor (in words): less active epimer

## CC(C)CC(=O)N[C@H](C(=O)N[C@H](C(=O)N[C@@H](CC(C)C)[C@@H](O)CC(=O)N[C@@H](C)C(=O)N[C@@H](CC(C)C)[C@@H](O)CC(=O)O)C(C)C)C(C)C [pepstatin] (Isovaleryl-VV[Sta]A[Sta]-OH)
Hog renin
  reduction of blood pressure: reduce blood pressure in vivo
pepsin
  inhibition of pepsin (in words): inhibitor of aspartyl proteases such as pepsin
Cathepsin D
  inhibition of cathepsin D (in words): inhibitor of aspartyl proteases such as pepsin, cathepsin D
renin
  inhibition of renin (in words): inhibitor of aspartyl proteases such as pepsin, cathepsin D and renin
Acid proteases
  inhibition of acid proteases in addition to renin (in words): inhibiting acid proteases in addition to renin
